Data: paper PMC11207005 (Pharmaceuticals, 2024)

Columns and labels:
[1] = Phase solubility study of ALB with βCD (stability constant); assay type: physicochemical; conditions: distilled water, 25 °C
Description: (§1) Phase solubility tests were conducted in distilled water following the procedure outlined in the Higuchi and Connors technique. […] Samples were placed in the water bath (25 °C/2 days/50 rpm) to attain equilibrium. Samples of 3 mL were withdrawn and filtered through a 0.45 μm nylon membrane filter. The filtrate (1 mL) was diluted appropriately with methanol, stirred for one hour (200 rpm), and assayed at 340 nm. The concentrations used were 2, 4, 10, 15, and 20 mmol/L for both βCD and HPβCD.

[2] = cited from earlier work
[3] = cited from earlier work; remark: listed apart in the source
[4] = Dissolution test, USP apparatus type II; assay type: physicochemical; conditions: pH 6.8 phosphate buffer, 37 °C, 100 rpm, powder
Description: In the following circumstances, the dissolution test was carried out on the prepared ALB capsules and the complex-containing ones. The dissolution medium was a USP type II (paddle type) and 900 mL of pH 6.8 phosphate buffer at 37 ± 1 °C with the rotation speed fixed at […]. At selected time points (10, 20, …, 80), 2 mL samples of dissolution medium were withdrawn and replaced with a fresh buffer. Times start from 0-time points for powder dissolution and end after 20 min (average time to dissolve the capsule shell).

[5] = Oral pharmacokinetic (bioavailability) study in rats, non-compartmental analysis; assay type: in vivo, Wistar rats
Description: The Shimadzu SCL-10A VP system control (Kyoto, Japan) has a mass detector (LCMS2010A) from Shimadzu Kylimatu, Japan. The mobile phase comprised acetonitrile–deionized water–formic acid (70: 30: 0.1%, v/v). Rosuvastatin was utilized as an internal standard. The injection volume was 10 µL; the flow rate was […]; the autosampler temperature was 5 °C; the column temperature was 25 °C; and the column was ACE (C18; 4.6 × […]) with particle size of 5.0 µm.
The samples were prepared for injection into the instrument as follows: Samples (including known/unknown spiked plasma and samples) were obtained from the deep freezer, followed by a period of room-temperature thaw. Later, a plasma pipet was performed on the samples after they were shaken to form a mixture. A total of 270 µL of blank plasma per 300 µL of spiked plasma were pipetted into the labeled test tubes, and 30 µL of serial solutions into blank plasma were added. Then, 50 µL of rosuvastatin (IS) working solutions were added. Then, the samples were vortexed for roughly 10 s. A total of 700 µL of acetonitrile (precipitation solutions) were added and vortexed again for 2.0 min, then centrifugated at 4000 rpm for roughly five min at room temperature. After that, 200 µL from the supernatant was transferred to the HPLC vials inserts. Finally, the vials were capped and transferred into the autosampler racks.
The study protocol was validated and approved by the Institutional Review Board (IRB) of Applied Science University (ASU) (Decision no. 6/2021–2022). The preclinical investigation was conducted at the Animal House of ASU as a combined project. A total of 12 Wistar rats were prepared for this study and divided into two groups, with each group containing 6 rats. The average weight of the animals was 200 g ± 15 g, aged four weeks, and they were all males.
The animals for the experiment were prepared by depriving them of food (for about twelve hours) apart from full access to water, and they were identified by a sign mark on the tail. After the dosing of ALB, samples were retrieved from the rat’s tail. After, the tail was warmed for half a minute via a hot pad before every sampling period. […] The samples were kept in heparinized Eppendorf tubes, centrifugated to obtain the plasma, frozen at −25 °C, and kept until the time of analysis.
The plasma level–time profile of ALB was obtained using Microsoft Excel. Two profiles, F1 in G1 and F2 in G2, were plotted. […] ANOVA was applied to detect significant parameter differences using a […].

[6] = Phase solubility study of ALB with HPβCD (stability constant); assay type: physicochemical; conditions: distilled water, 25 °C
Description: as §1

[7] = Phase solubility study: solubility of pure ALB in distilled water; assay type: physicochemical; conditions: thermodynamic from solid, 25 °C
Description: as §1

[8] = male, Wistar, rat, plasma, po, 15 mg/kg

In the case of `CCc1cc2c(cc1N1CCC(N3CCOCC3)CC1)C(C)(C)c1[nH]c3cc(C#N)ccc3c1C2=O` [ALB, Alectinib], the “Ks (stability constant)” value [1] is listed as 500 M⁻¹, the Oral bioavailability [2] is listed as “around 37%” and the “log partition coefficient (log p)” value [3] is listed as 5.2. The “T30 (amount of ALB released in 30 min)” value [4] was 18%, the “Plasma concentration of ALB at 72 h” value ([5]; Wistar rats, F1 and F2, LLOQ 15 ng/mL) was “below the LLOQ” and the AUC(0-inf) [5, 8] was 7280 ± 306 ng·h/mL. It also gave a Cmax [5, 8] of 240 ± 26.9 ng/mL, a Tmax [5, 8] of 7.33 ± 1.03 h and an AUC(0-t) ([5]; male, Wistar, rat, plasma, po, 15 mg/kg, read-out: AUC0-48 (AUC-48)) of 5950 ± 265 ng·h/mL. For the same compound, the k el ([5]; male, Wistar, rat, plasma, po, 15 mg/kg, read-out: Kel (elimination rate constant) (converted)) was 1.25e-05 s⁻¹, the “Ks (stability constant)” value [6] was 1836 M⁻¹ and the solubility at 2 days [7] was 2 µM. It also gave a solubility at 2 days ([7]; approximate) of ~1 µg/mL.
